Assay results taken from patent US12404275B2, “Pyrazolopyrazine derived compounds, pharmaceutical composition and use thereof” (PrimeGene (Beijing) Co., Ltd., priority 2019, dated 2025).

Legend:
Format in all cases: biochemical
Tyk2 [1] = target: Tyk2 (Homo sapiens, UniProt P29597); assay: Mobility shift assay, inhibitory activity on Tyk2 kinase; settings: mobility shift assay; Tyk2 2.5 nM; ATP 1 mM; 3 μM Kinase Substrate 30
Description: (§1) Inhibitory Activities of the Compounds on JAK1, JAK2, JAK3 and Tyk2 (IC50)
(§2) The inhibitory activity of compounds on JAK family kinase was analyzed with Mobility shift assay. The screening platform is MSA based microfluidic chip technology, which applies the basic concept of capillary electrophoresis to microfluidic environment. The substrate used in the experiment is a poly-peptide labeled with fluorescent. Under the catalysis of kinase in the reaction system, the substrate is transformed into a product, with the charge changed accordingly. MSA technology could detect the substrate and the product with different charge separately.
(§3) A compound (powder) was dissolved in 100% DMSO to prepare a 10 mM storage solution. […] Detection in duplicate. Baricitinib (Selleckchem, Cat. S2851) was used as positive control. The serially diluted compound was mixed with JAK1/JAK2/JAK3/Tyk2 kinase (Cama, Cat. 08-144/08-045/08-046/08-147) with final concentration of 5 nM/0.125 nM/0.5 nM/2.5 nM in a Optiplate-384F plate and incubated at room temperature for 10 minutes. After that, ATP with final concentration of 1 mM and 3 μM Kinase Substrate 30 (GL Biochem, Cat. 117885) were added and mixed well. The reaction was carried out at room temperature for 20 min. Stop test solution was added to stop the reaction and the conversion rate was read by Caliper EZ Reader II.
(§4) Conversion %_sample: the conversion rate reading of the sample;
(§5) Conversion %_min: mean value of negative control, representing the conversion rate reading without kinase activity;
(§6) Coversion %_max: mean value of positive control, representing the conversion rate reading without compound inhibition.

JAK2 = JAK2 (Homo sapiens, UniProt O60674); assay: Mobility shift assay, inhibitory activity on JAK2 kinase; settings: JAK2 0.125 nM, ATP 1 mM, 3 μM Kinase Substrate 30
Description: as §1, §2, §3, §4, §5, §6

Tyk2 [2] = assay: Mobility shift assay, inhibitory activity on Tyk2 kinase; settings: ratio of JAK2 IC50 to TyK2 IC50
Description: as §1, §2, §3, §4, §5, §6

| Structure (SMILES) | IC50 (Tyk2 [1]) | IC50 (JAK2) | Selectivity of JAK2/TyK2 (Tyk2 [2]) |
| --- | --- | --- | --- |
| CC(C)S(=O)(=O)N1CC(CC#N)(n2cc(-c3nc(-c4cnn(C)c4)cn4ncc(C#N)c34)c(N)n2)C1 [Example 4, 4-(3-amino-1-(3-(cyanomethyl)-1-(isopropylsulfonyl)azetidin-3-yl)-1H-pyrazol-4-yl)-6-(1-methyl-1H-pyrazol-4-yl)pyrazolo[1,5-a]pyrazine-3-carbonitrile] | 1760 nM |  |  |
| CC(=O)Nc1nn([C@]2(CC#N)C[C@@H](C#N)C2)cc1-c1nc(-c2cnn(C)c2)cn2nccc12 [Example 40, N-(1-((1r,3r)-3-cyano-1-(cyanomethyl)cyclobutyl)-4-(6-(1-methyl-1H-pyrazol-4-yl)pyrazolo[1,5-a]pyrazin-4-yl)-1H-pyrazol-3-yl)acetamide] | 139 nM |  |  |
| Cn1cc(-c2cn3ncnc3c(-c3cn([C@]4(CC#N)C[C@@H](C#N)C4)nc3N)n2)cn1 [Example 41, (1r,3r)-3-(3-amino-4-(6-(1-methyl-1H-pyrazol-4-yl)-[1,2,4]triazolo[1,5-a)pyrazin-8-yl)-1H-pyrazol-1-yl)-3-(cyanomethyl)cyclobutane-1-carbonitrile] | 37 nM |  |  |
| Cn1cc(-c2cn3nccc3c(-c3cn([C@]4(CC#N)C[C@H](C#N)C4)nc3N)n2)cn1 [Example 10, (1s,3s)-3-(3-amino-4-(6-(1-methyl-1H-pyrazol-4-yl)pyrazolo[1,5-a]pyrazin-4-yl)-1H-pyrazol-1-yl)-3-(cyanomethyl)cyclobutyl-1-carbonitrile] | 0.13 nM | 0.25 nM |  |
| Cn1cc(-c2cn3nccc3c(-c3cn([C@]4(CC#N)C[C@@H](C#N)C4)c4ccncc34)n2)cn1 [Example 48, (1r,3r)-3-(cyanomethyl)-3-(3-(6-(1-methyl-1H-pyrazol-4-yl)pyrazolo[1,5-a]pyrazin-4-yl)-1H-pyrrolo[3,2-c]pyridin-1-yl)cyclobutane-1-carbonitrile] | 0.36 nM | 8.1 nM | 22.5 |
| CNc1nn([C@]2(CC#N)C[C@@H](C#N)C2)cc1-c1nc(-c2cnn(C)c2)cn2nccc12 [Example 38, (1r,3r)-3-(cyanomethyl)-3-(4-(6-(1-methyl-1H-pyrazol-4-yl)pyrazolo[1,5-a]pyrazin-4-yl)-3-(methylamino)-1H-pyrazol-1-yl)cyclobutane-1-carbonitrile] | 0.33 nM | 6.7 nM | 20 |
| CCS(=O)(=O)N1CC(CC#N)(n2cc(-c3nc(-c4cnn(C)c4)cn4nccc34)c(N)n2)C1 [Example 2, 2-(3-(3-amino-4-(6-(1-methyl-TH-pyrazol-4-yl)pyrazolo[1,5-a]pyrazin-4-yl)-1H-pyrazol-1-yl)-1-(ethylsulfonyl)azetidin-3-yl)acetonitrile] | 0.38 nM | 64 nM | 168 |
| Cn1cc(-c2cc(-c3cn([C@]4(CC#N)C[C@H](C#N)C4)nc3N)c3ccnn3c2)cn1 [Example 43, (is, 3s)-3-(3-amino-4-(6-(1-methyl-TH-pyrazol-4-yl)pyrazolo[1,5-a]pyridin-4-yl)-1H-pyrazol-1-yl)-3-(cyanomethyl)cyclobutane-1-carbonitrile] | 43 nM |  |  |
| Cn1cc(-c2cn3nccc3c(-c3cn([C@]4(CC#N)C[C@H](C#N)C4)c4ccncc34)n2)cn1 [Example 47, (1s,3s)-3-(cyanomethyl)-3-(3-(6-(1-methyl-1H-pyrazol-4-yl)pyrazolo[1,5-a]pyrazin-4-yl)-1H-pyrrolo[3,2-c]pyridin-1-yl)cyclobutane-1-carbonitrile] | 186 nM |  |  |
| Cn1cc(-c2cn3nccc3c(-c3cn([C@]4(CC#N)C[C@H](C#N)C4)c4ncncc34)n2)cn1 [Example 50, (1r,3r)-3-(cyanomethyl)-3-(5-(6-(1-methyl-1H-pyrazol-4-yl)pyrazolo[1,5-a]pyrazin-4-yl)-7H-pyrrolo[2,3-d]pyrimidin-7-yl)cyclobutane-1-carbonitrile] | 0.41 nM | 10 nM | 24.4 |
| Cn1cc(-c2cn3nccc3c(-c3cn([C@]4(CC#N)C[C@H](C#N)C4)c4ncncc34)n2)cn1 [Example 49, (1s,3s)-3-(cyanomethyl)-3-(5-(6-(1-methyl-1H-pyrazol-4-yl)pyrazolo[1,5-a]pyrazin-4-yl)-7H-pyrrolo[2,3-d]pyrimidin-7-yl)cyclobutane-1-carbonitrile] | 118 nM |  |  |
| CN(C)c1nn([C@]2(CC#N)C[C@@H](C#N)C2)cc1-c1nc(-c2cnn(C)c2)cn2nccc12 [Example 39, (1r,3r)-3-(cyanomethyl)-3-(3-(dimethylamino)-4-(6-(1-methyl-1H-pyrazol-4-yl)pyrazolo[1,5-a]pyrazin-4-yl)-1H-pyrazol-1-yl)cyclobutane-1-carbonitrile] | 3.7 nM | 200 nM | 54 |
| Cn1cc(-c2cc(-c3cn([C@]4(CC#N)C[C@@H](C#N)C4)nc3N)c3ccnn3c2)cn1 [Example 42, (1r,3r)-3-(3-amino-4-(6-(1-methyl-1H-pyrazol-4-yl)pyrazolo[1,5-a]pyridin-4-yl)-1H-pyrazol-1-yl)-3-(cyanomethyl)cyclobutane-1-carbonitrile] | 375 nM |  |  |
| Cn1cc(-c2cn3nccc3c(-c3cn(C4(CC#N)CN(CC#N)C4)nc3N)n2)cn1 [Example 1, 2,2′-(3-(3-amino-4-(6-(1-methyl-1H-pyrazol-4-yl)pyrazolo[1,5-a]pyrazine-4-yl)-1H-pyrazol-1-yl)azetidine-1,3-diyl)diacetonitrile] | 0.42 nM | 88 nM | 210 |
| Cn1cc(-c2cn3nccc3c(-c3cn([C@]4(CC#N)C[C@@H](C#N)C4)nc3N)n2)cn1 [Example 9, (1r,3r)-3-(3-amino-4-(6-(1-methyl-1H-pyrazol-4-yl)pyrazolo[1,5-a]pyrazin-4-yl)-1H-pyrazol-1-yl)-3-(cyanomethyl)cyclobutyl-1-carbonitrile] | 0.17 nM | 14 nM |  |
| CC(C)S(=O)(=O)N1CC(CC#N)(n2cc(-c3nc(-c4cnn(C)c4)cn4nccc34)c(N)n2)C1 [Example 3, 2-(3-(3-amino-4-(6-(1-methyl-1H-pyrazol-4-yl)pyrazolo[1,5-a]pyrazin-4-yl)-1H-pyrazol-1-yl)-1-(isopropylsulfonyl)azetidin-3-yl)acetonitrile] | 2.1 nM | 77 nM | 36.6 |
